Values joined by “and” are separate entries in the source; they are usually repeats but may differ in a detail not shown here. Identical values can stand only once. Inconclusive results and toxic doses are left out.
Tested on: L1210 leukemia ip in BDF1 mice, survival T/C
Test: NCI In Vivo Anticancer Drug Screen. Data for tumor model L1210 Leukemia (intraperitoneal) in B6D2F1 (BDF1) mice
Conditions: endpoint: mean survival time, higher = longer survival
Outline: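 Tumor was transplanted into mice, which were then dosed with test compound or vehicle alone. Survival was recorded for each group, and the treated figure was expressed relative to the control figure.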

[1] = dose: 100.0 mg/kg/injection, schedule: Q01DX001 (ip), vehicle: saline
[2] = dose: 200.0 mg/kg/injection, schedule: Q01DX001 (ip), vehicle: saline
[3] = dose: 400.0 mg/kg/injection, schedule: Q01DX001 (ip), vehicle: saline
[4] = dose: 100.0 mg/kg/injection, schedule: Q04DX003 (ip), vehicle: saline
[5] = dose: 200.0 mg/kg/injection, schedule: Q04DX003 (ip), vehicle: saline
[6] = dose: 100.0 mg/kg/injection, schedule: Q04DX002 (ip), vehicle: Klucel (hydroxypropylcellulose) (HPC)
[7] = dose: 200.0 mg/kg/injection, schedule: Q04DX002 (ip), vehicle: Klucel (hydroxypropylcellulose) (HPC)
[8] = dose: 400.0 mg/kg/injection, schedule: Q04DX002 (ip), vehicle: Klucel (hydroxypropylcellulose) (HPC)
[9] = dose: 50.0 mg/kg/injection, schedule: Q01DX001 (ip), vehicle: saline
[10] = dose: 50.0 mg/kg/injection, schedule: Q01DX009 (ip), vehicle: saline with Tween-80
[11] = dose: 100.0 mg/kg/injection, schedule: Q01DX009 (ip), vehicle: saline with Tween-80
[12] = dose: 100.0 mg/kg/injection, schedule: Q04DX003 (ip), vehicle: saline with Tween-80
[13] = dose: 200.0 mg/kg/injection, schedule: Q01DX009 (ip), vehicle: saline with Tween-80
[14] = dose: 200.0 mg/kg/injection, schedule: Q04DX003 (ip), vehicle: saline with Tween-80

With NNc1ncnc2c1ncn2C1OC(CO)C(O)C1O (centres undefined) the T/C (dose: 1.0 mg/kg/injection, schedule: Q01DX015 (ip), vehicle: carboxymethylcellulose (CMC)) was 106 % of control, the T/C (dose: 3.0 mg/kg/injection, schedule: Q01DX015 (ip), vehicle: carboxymethylcellulose (CMC)) was 109 % of control and the T/C (dose: 6.0 mg/kg/injection, schedule: Q01DX015 (ip), vehicle: carboxymethylcellulose (CMC)) was 106 % of control. For the same compound, the T/C (dose: 12.0 mg/kg/injection, schedule: Q01DX015 (ip), vehicle: carboxymethylcellulose (CMC)) was 97 % of control, the T/C (dose: 20.0 mg/kg/injection, schedule: Q01DX015 (ip), vehicle: carboxymethylcellulose (CMC)) was 106 % of control and the T/C (dose: 25.0 mg/kg/injection, schedule: Q01DX015 (ip), vehicle: carboxymethylcellulose (CMC)) was 118 % of control. The T/C (dose: 30.0 mg/kg/injection, schedule: Q01DX015 (ip), vehicle: carboxymethylcellulose (CMC)) was 108 % of control, the T/C (dose: 44.0 mg/kg/injection, schedule: Q01DX015 (ip), vehicle: carboxymethylcellulose (CMC)) was 122 % of control and the T/C (dose: 50.0 mg/kg/injection, schedule: Q01DX001 (ip), vehicle: carboxymethylcellulose (CMC)) was 108 % of control. For the same compound, the T/C (dose: 50.0 mg/kg/injection, schedule: Q01DX Z (ip), vehicle: other) was 122 % of control, the T/C (dose: 75.0 mg/kg/injection, schedule: Q01DX Z (ip), vehicle: other) was 121 % of control and the T/C (dose: 100.0 mg/kg/injection, schedule: Q01DX001 (ip), vehicle: carboxymethylcellulose (CMC)) was 116 % of control. The T/C (dose: 100.0 mg/kg/injection, schedule: Q01DX015 (ip), vehicle: carboxymethylcellulose (CMC)) was 124 % of control, the T/C (dose: 100.0 mg/kg/injection, schedule: Q01DX Z (ip), vehicle: other) was 152 % of control and the T/C (dose: 150.0 mg/kg/injection, schedule: Q01DX015 (ip), vehicle: carboxymethylcellulose (CMC)) was 86 % of control. The T/C (dose: 150.0 mg/kg/injection, schedule: Q01DX Z (ip), vehicle: other) was 95 % of control, the T/C (dose: 186.75 mg/kg/injection, schedule: Q01DX015 (ip), vehicle: gum acacia) was 83 % of control and the T/C (dose: 200.0 mg/kg/injection, schedule: Q01DX001 (ip), vehicle: carboxymethylcellulose (CMC)) was 111 % of control. For the same compound, the T/C (dose: 220.0 mg/kg/injection, schedule: Q01DX015 (ip), vehicle: carboxymethylcellulose (CMC)) was 95 % of control.

In the case of C/C(=C\COC1CCCCO1)CCC1OC1(C)C (centres undefined), the T/C [1] is reported as 103 % of control, the T/C (dose: 100.0 mg/kg/injection, schedule: Q01DX009 (ip), vehicle: saline) is reported as 108 % of control and the T/C [2] is reported as 100 % of control. For the same compound, the T/C (dose: 200.0 mg/kg/injection, schedule: Q01DX009 (ip), vehicle: saline) was 98 % of control, the T/C [3] was 100 % of control and the T/C (dose: 400.0 mg/kg/injection, schedule: Q01DX009 (ip), vehicle: saline) was 101 % of control.

For O=[N+]([O-])c1cccnc1Oc1cccc(C(F)(F)F)c1, the T/C [4] was 100 % of control, the T/C [5] was 105 % of control and the T/C (dose: 400.0 mg/kg/injection, schedule: Q04DX003 (ip), vehicle: saline) was 104 % of control.

For COC(=O)COc1ccc2ccccc2c1Cl, the T/C [6] was 86 % of control, the T/C [7] was 99 % of control and the T/C [8] was 96 % of control.

In the case of [Se]=P(N1CCCCC1)(N1CCCCC1)N1CCCCC1, the T/C (dose: 25.0 mg/kg/injection, schedule: Q01DX009 (ip), vehicle: Klucel (hydroxypropylcellulose) (HPC)) is reported as 98 % of control, the T/C (dose: 50.0 mg/kg/injection, schedule: Q01DX009 (ip), vehicle: Klucel (hydroxypropylcellulose) (HPC)) is reported as 104 % of control and the T/C (dose: 100.0 mg/kg/injection, schedule: Q01DX009 (ip), vehicle: Klucel (hydroxypropylcellulose) (HPC)) is reported as 87 % of control.

For CCCCCCNC(=S)Nc1ccccc1, the T/C [9] was 97 % of control, the T/C [1] was 103 % of control and the T/C [2] was 97 % of control.

O=C(O)c1[nH]c2c(=O)[nH]c(=O)[nH]c2c1Br was tested, and the T/C [1] was 102 % of control, the T/C [2] was 100 % of control and the T/C [3] was 100 % of control.

For CC1(C)C[N+](Cc2ccccc2)(Cc2ccccc2)C1, the T/C (dose: 0.78 mg/kg/injection, schedule: Q01DX009 (ip), vehicle: saline) was 100 % of control, the T/C (dose: 1.56 mg/kg/injection, schedule: Q01DX009 (ip), vehicle: saline) was 102 % of control and the T/C (dose: 3.12 mg/kg/injection, schedule: Q01DX009 (ip), vehicle: saline) was 100 % of control. The T/C (dose: 6.25 mg/kg/injection, schedule: Q01DX009 (ip), vehicle: saline) was 103 % of control, the T/C (dose: 12.5 mg/kg/injection, schedule: Q04DX003 (ip), vehicle: saline) was 112 % of control and the T/C (dose: 25.0 mg/kg/injection, schedule: Q04DX003 (ip), vehicle: saline) was 98 % of control. The T/C (dose: 50.0 mg/kg/injection, schedule: Q04DX003 (ip), vehicle: saline) was 97 % of control.

In the case of CCN(CC)CCN1C(=O)C(c2ccccc2)C2(CCN(C)CC2)C1=O (centres undefined), the T/C [1] is reported as 101 % of control, the T/C [2] is reported as 105 % of control and the T/C [3] is reported as 97 % of control.

For O=C(C=C(C(F)(F)F)C(F)(F)F)c1ccco1, the T/C (dose: 12.5 mg/kg/injection, schedule: Q01DX009 (ip), vehicle: saline with Tween-80) was 100 % of control and the T/C (dose: 25.0 mg/kg/injection, schedule: Q01DX009 (ip), vehicle: saline with Tween-80) was 104 % of control.

With Cc1c(C#N)c2n(c1C)CCCC(=O)N2 the T/C [10] was 91 % of control, the T/C (dose: 50.0 mg/kg/injection, schedule: Q04DX003 (ip), vehicle: saline with Tween-80) was 101 % of control and the T/C [11] was 90 % of control. For the same compound, the T/C [12] was 88 % of control, the T/C [13] was 91 % of control and the T/C [14] was 97 % of control. For the same compound, the T/C (dose: 400.0 mg/kg/injection, schedule: Q01DX009 (ip), vehicle: saline with Tween-80) was 88 % of control and the T/C (dose: 400.0 mg/kg/injection, schedule: Q04DX003 (ip), vehicle: saline with Tween-80) was 92 % of control.

In the case of Cc1c(C)c(C)c(C(=O)C[n+]2ccccc2)c(C)c1C, the T/C (dose: 12.5 mg/kg/injection, schedule: Q04DX002 (ip), vehicle: saline) is reported as 104 % of control, the T/C (dose: 25.0 mg/kg/injection, schedule: Q04DX002 (ip), vehicle: saline) is reported as 96 % of control and the T/C (dose: 50.0 mg/kg/injection, schedule: Q04DX002 (ip), vehicle: saline) is reported as 107 % of control.

CCOC1OC(C2COC(=O)O2)C(O)C1O (centres undefined) was tested, and the T/C (dose: 100.0 mg/kg/injection, schedule: Q04DX002 (ip), vehicle: saline) was 100 % of control, the T/C (dose: 200.0 mg/kg/injection, schedule: Q04DX002 (ip), vehicle: saline) was 100 % of control and 104 % of control and the T/C (dose: 400.0 mg/kg/injection, schedule: Q04DX002 (ip), vehicle: saline) was 100 % of control. The T/C (dose: 800.0 mg/kg/injection, schedule: Q04DX002 (ip), vehicle: saline) was 100 % of control.

With O=C1C2C(C(=O)N1c1ccccc1)C(c1ccccc1)N(c1ccccc1)C2c1ccccc1 (centres undefined) the T/C [9] was 103 % of control, the T/C [1] was 108 % of control and the T/C [2] was 100 % of control. The T/C [3] was 103 % of control.

For O=C(O)c1c(Cl)ccc([N+](=O)[O-])c1Cl, the T/C (dose: 100.0 mg/kg/injection, schedule: Q04DX003 (ip), vehicle: Klucel (hydroxypropylcellulose) (HPC)) was 88 % of control, the T/C (dose: 200.0 mg/kg/injection, schedule: Q04DX003 (ip), vehicle: Klucel (hydroxypropylcellulose) (HPC)) was 95 % of control and the T/C (dose: 400.0 mg/kg/injection, schedule: Q04DX003 (ip), vehicle: Klucel (hydroxypropylcellulose) (HPC)) was 92 % of control.

With COC(=O)C(=C(c1ccccc1)c1ccccc1)c1ccccc1 the T/C [12] was 90 % of control and the T/C [14] was 90 % of control.

In the case of CCCCC(=O)N(CC)CC, the T/C (dose: 100.0 mg/kg/injection, schedule: Q01DX001 (ip), vehicle: acetone) is reported as 97 % of control and the T/C (dose: 200.0 mg/kg/injection, schedule: Q01DX001 (ip), vehicle: acetone) is reported as 97 % of control.

Nc1ccccc1SC1CC(=O)N(c2ccc(Oc3ccc(Cl)cc3)cc2)C1=O (centres undefined) was tested, and the T/C (dose: 75.0 mg/kg/injection, schedule: Q01DX009 (ip), vehicle: Klucel (hydroxypropylcellulose) (HPC)) was 87 % of control, the T/C (dose: 150.0 mg/kg/injection, schedule: Q01DX009 (ip), vehicle: Klucel (hydroxypropylcellulose) (HPC)) was 98 % of control and the T/C (dose: 300.0 mg/kg/injection, schedule: Q01DX009 (ip), vehicle: Klucel (hydroxypropylcellulose) (HPC)) was 92 % of control.

With CC1(C)CC(N)CC(C)(C)N1O the T/C [4] was 100 % of control and the T/C [5] was 97 % of control.

With COc1cc2c(c(OC)c1OC)CCc1cnoc1-2 the T/C [6] was 97 % of control, the T/C [7] was 112 % of control and the T/C [8] was 91 % of control.

With CSc1nc(N(C)C)c2[nH]c(C)nc2n1 the T/C [1] was 87 % of control and the T/C [2] was 101 % of control.

In the case of CC(C)=NN, the T/C [1] is reported as 105 % of control, the T/C [2] is reported as 98 % of control and the T/C [3] is reported as 100 % of control.

c1ccc(N2CCN(c3ccccn3)CC2)nc1 was tested, and the T/C [10] was 92 % of control, the T/C [11] was 99 % of control and the T/C [13] was 89 % of control.
